Assay results published in US20200256882A1, “FLUID PROPERTY MEASUREMENT DEVICES AND METHODS” (Abram Scientific, Inc., priority 2019, published 2020).
Where two headings read alike, the source gives them in different places. Positions of bridges follow the written chain, without caps; N, C: chain ends. Non-standard residues stand in square brackets, D forms with d. Residues, ends and D or L forms follow the SMILES beside them. hArg = N=C(N)NCCCC[C@H](N)C(=O)O; Mpa = O=C(O)CCS

Assays:
[1] = system: whole blood samples (extrinsic coagulation pathway); assay: Thromboelastogram (TEG) coagulation test on disposable test strip; format: biochemical; details: for peak / maximum thrombin generation (ThrombinPeak): blood samples with increasing concentrations of the anticoagulant (heparin 0 to 3 IU/ml); for clot formation time (R): blood samples with increasing concentrations of the anticoagulant, FIG. 20(a), 21(a); for clot stiffness G: blood samples with increasing concentrations of the substance (cleavable fibrinogen 42 to 231 mg/dL); for ratio of the normalized ThrombinPeak and clot stiffness G: tested samples with increasing anticoagulant concentrations, FIG. 22(d)
Method: The disposable test strips used in this example were incorporated with a reagent comprising of rabbit brain thromboplastin (Pacific Hemostasis Prothrombin Time reagent, Thromboplastin-DS, Product# 29-227-3), calcium chloride (25 mM) and Tween (2% v/v aqueous solution). Prior to the final assembly of the strip, the reagent was incorporated by dispensing the solution on to the exposed hydrophilic surface in the bottom stack, followed by air-drying in a drying box with humidity control at standard room temperature and pressure. The ratio of the volume of the reagent to blood tested in the chamber was maintained at close to 2:1 to ensure successful initiation of the blood coagulation reaction. […] In this example, venous whole blood and finger-stick, capillary whole blood samples from a normal subject were used. In addition, finger-stick, capillary whole blood samples from patients undergoing warfarin therapy at an anticoagulation clinic were used. Following procurement of informed consent under an Institutional Review Board (IRB) approved protocol, phlebotomy was performed to extract the blood sample by venipuncture and the sample was directly dispensed into blood collection tubes containing sodium citrate anticoagulant. The citrated whole blood samples were contrived in vitro to incorporate varying amounts of unfractionated heparin (0 to 3 IU/ml), cleavable fibrinogen (42 to 231 mg/dL), Eptifibatide (GPIIb/IIIa platelet inhibitor, 0 to 12 μg/mL), and tissue plasminogen activator (tPA, 0 to 1.8 nM). Further in some tests, following procurement of informed consent under an Institutional Review Board (IRB) approved protocol, a standard lancet was used to extract blood samples by finger-stick and a standard microliter pipette or dropper was used to pick up the sample for insertion into the disposable test strip. Lastly, in some tests, blood samples were also tested using 2 Haemonetics' TEG-5000 instruments (2 tests per instrument) and their corresponding TEG curve & parameters were recorded, in order to perform side-by-side comparison with the results generated using the disposable test strips. Results: • In this example, the oscillation characteristics (amplitude and phase) of the in-plane vibration mode of a physical element in single-use disposable test strips were measured as a function of frequency in the vicinity of the resonance frequency, and these amplitude & phase frequency scans were monitored periodically to determine different aspects of the blood coagulation cascade. The blood sample upon entering the chamber reacted with the dried reagent and started to coagulate through the extrinsic coagulation pathway. An example of the amplitude and phase frequency scans of an oscillating physical element in a disposable test strip with a blood sample in the chamber undergoing coagulation is shown in FIGS. 13(a) and 13(b), respectively, wherein the amplitude and phase at the resonance frequency peak are seen to decrease in magnitude as the blood coagulation cascade progresses. These amplitude and phase frequency scans monitored periodically over time were used to perform a Thromboelastogram (TEG) test, wherein a characteristic […] shaped viscoelastic curve and parameters were extracted. The TEG-like viscoelastic parameters extracted were clot formation time (R), activated clotting time (ACT), maximum thrombin generation (ThrombinPeak), clot stiffness (G), platelet contraction rate (Plt-Cont), and fibrinolysis rate (Lys-Rate). A mathematical model of the viscoelastic oscillation damping of the physical element, which incorporated the different kinetic processes in the coagulation cascade, was used to fit to data from the amplitude and phase frequency scans measured as a function of time. […]

[2] = Method: Ethylene glycol solutions were prepared using de-ionized water in varying concentrations ranging from 0 to 40.38% as shown in Table I. The solutions were prepared in 20 ml de-ionized water and corresponding volume of ethylene glycol solutions concentrations. The fluid sample, when introduced into the assembled disposable test strip through the inlet port (i.e. rectangular opening 207 in FIG. 2(a)), wicked into the chamber under the region of the substrate layer leading up to the suspended beam, followed by the fluid flow being directed through the chamber along the beam length while maintaining contact with the underside of the beam (at or slightly beyond its width), and finally, flowing through the chamber under the region of the substrate layer past the beam leading up to the vent port (i.e. rectangular opening 208 in FIG. 2(a)), which permits air to escape from the chamber as it is loaded with the fluid sample.
[3] = system: venous whole blood samples (intrinsic coagulation pathway); assay: Activated partial thromboplastin time (aPTT) coagulation test on disposable test strip; format: biochemical; details: citrated venous whole blood spiked in vitro, 0.0 to 1.0 IU/ml; FIG. 10, R^2=0.92
Method: The disposable test strips used in this example were incorporated with a reagent comprising of Actin-FS activated partial thromboplastin time reagent (Siemens Diagnostics, Catalog# B4218-20), calcium chloride (25 mM) and Tween (2% v/v aqueous solution). Prior to the final assembly of the strip, the reagent was incorporated by dispensing the solution on to the exposed hydrophilic surface in the bottom stack, followed by air-drying in a drying box with humidity control at standard room temperature and pressure. The ratio of the volume of the reagent to blood tested in the chamber was maintained at close to 2:1 to ensure successful initiation of the blood coagulation reaction. […]
In this example, the oscillation characteristics (e.g., amplitude) of the in-plane mode of a physical element in single-use disposable test strips were monitored and recorded before and after introduction of the blood sample, in order to measure the change in viscosity and viscoelasticity of the blood sample as a function of time as it undergoes coagulation. […] An algorithm was used to track the measured oscillation characteristics, viscosity and/or viscoelasticity as a function of time and identify a time to clot formation (measured starting from blood sample insertion time, t=0), in other words known as the partial thromboplastin time (aPTT). […]

[4] = system: venous whole blood samples (intrinsic coagulation pathway); assay: Low range activated clotting time (ACT) coagulation test on disposable test strip; format: biochemical; details: citrated venous whole blood spiked in vitro, 0.0 to 3.0 IU/ml; FIG. 11, R^2=0.99
Method: (§1) The disposable test strips used in this example were incorporated with a reagent comprising of kaolin suspended in distilled water, calcium chloride (25 mM) and Tween (2% v/v aqueous solution). Prior to the final assembly of the strip, the reagent was incorporated by dispensing the solution on to the exposed hydrophilic surface in the bottom stack, followed by air-drying in a drying box with humidity control at standard room temperature and pressure. […]
(§2) Results: • In this example, the oscillation characteristics (e.g., amplitude) of the in-plane mode of a physical element in single-use disposable test strips were monitored and recorded before and after introduction of the blood sample, in order to measure the change in viscosity and viscoelasticity of the blood sample as a function of time as it undergoes coagulation. […] An algorithm was used to track the measured oscillation characteristics, viscosity and/or viscoelasticity as a function of time and identify a time to clot formation (measured starting from blood sample insertion time, t=0), in other words known as the activated clotting time (ACT). […] In this specific example, the ACT clotting time measured corresponds to a low-range ACT measurement given the system's sensitivity from 0.0 to 3.0 IU/ml, which corresponds to the low range of heparin therapy used during cardiac and hepatic surgeries.

[5] = system: venous whole blood samples (intrinsic coagulation pathway); assay: High range activated clotting time (ACT) coagulation test on disposable test strip; format: biochemical; details: citrated venous whole blood spiked in vitro, 1.0 to 5.0 IU/ml; FIG. 12, R^2=0.95
Method: as §1
as §2, with “high-range” for “low-range”, “1.0” for “0.0”, “5.0” for “3.0”, “high” for “low”

[6] = 16.22 % v/v in de-ionized water
[7] = 40.38 % v/v in de-ionized water
[8] = 3 warfarin patient samples, increasing warfarin activity, FIG. 15

For `N=C(N)NCCCC[C@@H]1NC(=O)CCSSC[C@@H](C(N)=O)NC(=O)[C@@H]2CCCN2C(=O)[C@H](Cc2c[nH]c3ccccc23)NC(=O)[C@H](CC(=O)O)NC(=O)CNC1=O` [Eptifibatide] ([Mpa][hArg]GDWPC-NH2; disulfide 1-7), the “rate of platelet contraction (Plt-Cont)” value ([1]; blood samples with increasing concentrations, 0 to 12 μg/mL, FIG. 18(b)) was “decreasing trend”.
`OCCO` [Ethylene Glycol, ethylene glycol] showed a Density ([2]; 10 % v/v in de-ionized water) of 1.035 gm/cc, a Viscosity ([2]; 10 % v/v in de-ionized water) of 1.9903 cP and a Density [2, 6] of 1.052 gm/cc. It also gave a Viscosity [2, 6] of 2.7938 cP, a Density ([2]; 22.5 % v/v in de-ionized water) of 1.065 gm/cc and a Viscosity ([2]; 22.5 % v/v in de-ionized water) of 3.711 cP. The Density [2, 7] was 1.088 gm/cc and the Viscosity [2, 7] was 6.8247 cP.
In the case of `O=C(NC[C@H]1CN(c2ccc(N3CCOCC3=O)cc2)C(=O)O1)c1ccc(Cl)s1` [Rivaroxaban], the “peak / maximum thrombin generation (ThrombinPeak)” value (shortened to “peak / maximum thrombin generation”) [1] is reported as “reducing”, the “clot formation time (R)” value [1] is reported as “increasing linear trend” and the “clot stiffness G” value [1] is reported as “limited to no effect”. For the same compound, the “ratio of the normalized ThrombinPeak and clot stiffness G” value [1] was “decreasing linear trend”.
For `CC(=O)CC(c1ccccc1)c1c(O)c2ccccc2oc1=O` (stereo not shown) [warfarin], the maximum thrombin generation ([1]; 3 warfarin patient samples, increasing warfarin activity (PT 17.4, 36.4, 54.4 seconds), FIG. 15) was “steady decrease”, the “time to maximum fibrin formation (TMA)” value [1, 8] was “delayed” and the “time to maximum thrombin generation (analogous to the ACT)” value [1, 8] was “delayed”.
For Dabigatran, the “peak / maximum thrombin generation” value [1] was “limited to no effect”, the “clot formation time (R)” value [1] was “increasing linear trend” and the “clot stiffness G” value [1] was “reducing”. For the same compound, the “ratio of the normalized ThrombinPeak and clot stiffness G” value [1] was “increasing”.
With heparin the “uncalibrated aPTT clotting time” value [3] was “linear dose response”, the “uncalibrated ACT clotting time (low-range)” value [4] was “linear dose response” and the “uncalibrated ACT clotting time (high-range)” value [5] was “linear dose response”. The “peak / maximum thrombin generation” value [1] was “decrease” and the “activated clotting time (ACT), time to peak thrombin generation” value ([1]; blood samples with increasing heparin concentrations from 0 to 3 IU/ml, FIG. 16) was “increase”.
